Experimental data published in patent US20210322404A1, “FGFR REGULATION FOR THE TREATMENT OF VIRAL INFECTIONS” (ETH ZURICH, priority 2016, published 2021).
Entries after “also recorded” stand apart in the source; their conditions may differ.

Tests used:
[1] = tested on: interferon-stimulated genes (ISGs); assay: ISG expression in primary mouse keratinocytes pre-incubated with inhibitors, then treated with FGF7 (qRT-PCR); assay type: cell-based; conditions: primary keratinocytes from wild-type mice; inhibitor 3 h (SB203580 5 μM, NSC23766 50 μM, AZD4547 1 μM), then FGF7 10 ng/ml 6 h
HSV-1 = HSV-1 infection of HaCaT cells, virus load; assay type: cell-based, Herpes Simplex Virus type 1; conditions: HaCaT; for amount and size of Glyc-D-positive fused cells (immunofluorescence): HSV-1; for amount and size of Glyc-D-positive fused cells (immunofluorescence) / Glyc-B DNA levels (viral load, qPCR relative to human β-actin gene): NSC23766 20 μM, AZD4547 1 μM; for Glyc-B DNA levels (viral load, qPCR relative to human β-actin gene): HSV-1 MOI=0.5, +/- FGF7 10 ng/ml, BGJ398 3.5 μM
Experimental: FIGS. 5A-C relate to HaCaT cells infected with HSV-1 (MOI=0.5) after overnight serum starvation, either alone or in combination with FGF7 (10 ng/ml) or IFNα (1000U/ml). 24 h after infection, virus load was determined by qPCR for the HSV-1 Glycoprotein B (Glyc-B) gene relative to the human β-actin gene (A) or visualized by immunofluorescence staining for HSV-1 Glycoprotein D (Glyc-D) (red) (B). The Glyc-B/β-actin gene ratio in HSV-1 infected cells was set to 1. Cell nuclei were stained with DAPI (blue). Magnification bar: 200 μm. (C) Transmission microscopy images of HaCaT cells taken 48 h after HSV-1 infection. […] Magnification bar: 80 μm. Representative data out of four experiments are shown.
FIGS. 5 D & E relate to overnight-starved HaCaT cells infected with HSV-1 (MOI=0.5) alone or in combination with IFNα (1000 U/ml), IFNα and FGF7 (10 ng/ml) (D); or FGF7 at different concentrations (E).
FIG. 5F pertains to serum-starved HaCaT cells that were infected with HSV-1 (MOI 0.5-1). After 4 h, infected cells were washed with PBS, followed by addition of fresh serum-free culture medium containing FGF7 (10 ng/ml).
FIGS. 5G-K pertains to overnight-starved HaCaT cells infected with HSV-1 (MOI=0.5) alone or in combination with FGF7, which was added at the indicated time points. 12 h after infection, cells were analyzed for Glyc-B DNA (H) and, RSAD2 and IRF7 mRNA levels by qPCR/qRT-PCR (I) or for ISG protein levels by western blotting (K). Vinculin was used as loading control.
FIGS. 7A-C relate to serum-starved HaCaT cells that were infected with HSV-1 in the presence or absence of FGF7 (10 ng/ml), NSC23766 (20 μM), the FGFR kinase inhibitors AZD4547 (1 μM) and BGJ398 (3.5 μM) (A) or IFNα (1000 U/ml) (B). […] Magnification bar: 500 μm. The Glyc-D positive area was quantified using digital pixel measurements (C, right). A representative out of two experiments is shown.
Frozen sections from mouse back skin were fixed with cold methanol, and unspecific binding sites were blocked with PBS/2% bovine serum albumin (BSA) (Sigma)/1% fish skin gelatin (Sigma)/0.05% Triton X-100 (Carl Roth GmbH, Karlsruhe, Germany) for 2 h at room temperature. Samples were then incubated overnight at 4° C. with anti-IRF7 or anti-K14 antibodies diluted in the same buffer. After three washes with 1×PBS/0.1% Tween 20 (Carl Roth GmbH), slides were incubated at room temperature (RT) for 4 h with secondary antibodies (AF555-conjugated anti-rabbit IgG and AF488-conjugated anti-mouse IgG) and DAPI (4′,6-diamidino-2-phenylindole dihydrochloride) (Sigma) as counter-stain, washed again and mounted with Mowiol (Hoechst, Frankfurt, Germany). Stained sections were photographed with a Leica SP1-2 confocal microscope equipped with a 63×0.6-1.32 NA (Iris) PL Apo Oil objective. For data acquisition the Leica Confocal Software (Leica, Wetzlar, Germany) was used. For immunofluorescence staining of cultured cells, they were washed with PBS and either fixed for 5 min with cold methanol for staining with antibodies against ZO-1 and IRF7, or with 4% paraformaldehyde (PFA) (Sigma) for 20 min at RT for Glyc-D staining. PFA-fixed cells were then incubated for 10 min with 0.5% Triton X-100 in PBS. After 1 h blocking in PBS containing 2% BSA, cells were stained with the primary antibodies for 1 h in the same blocking buffer. After three washes with PBS, cells were incubated with the secondary antibodies (AF555-conjugated anti-mouse IgG, AF488-conjugated anti-mouse IgG and AF555-conjugated anti-rabbit IgG) and DAPI.

HCV = conditions: hepatic / hepatoma cells, Van et al.; cited from earlier work
[2] = tested on: interferon-stimulated response element (ISRE); assay: ISRE luciferase reporter assay in immortalized mouse keratinocytes; assay type: cell-based; conditions: FGF7 10 ng/ml and/or IFNα 1000 U/ml, 12 h
Experimental: FIG. 3C pertains to immortalized mouse keratinocytes that were co-transfected with TK-Renilla and pGL4.45[luc2P/ISRE/Hygro] plasmids, starved in serum-free medium and then treated with FGF7 (10 ng/ml) and/or IFNα (1000 U/ml) for 12 h. Firefly luciferase activity was determined in cell lysates and normalized to Renilla luciferase activity (transfection control). The mean value in vehicle-treated cells (CTRL) was set to 1.
Mouse keratinocytes and HEK 293 cells were transfected with the expression vector for TK-Renilla and the expression vector pGL4.45[luc2P/ISRE/Hygro] (Promega). The latter contains five copies of an ISRE that drives expression of the luciferase reporter gene. Cells were seeded into 12-well plates, cultured for 24 h, and transfected using Lipofectamine 2000 […]. They were then starved in serum-free medium, treated with FGF7 (10 ng/ml) and/or IFNα (1000 U/ml) for 12 h, lysed and analyzed using a dual-luciferase assay system (Promega) as described by the manufacturer. Relative light units were measured in a GloMax 96 microplate luminometer with dual injectors (Promega).

LCMV = assay type: cell-based, Lymphocytic Choriomeningitis Virus; conditions: HaCaT, LCMV MOI 0.05 or 0.2
[3] = tested on: interferon-stimulated genes (ISGs); assay: ISG expression in human keratinocytes (HaCaT, primary foreskin) treated with FGF7, FGF10 and/or IFNα (qRT-PCR); assay type: cell-based; conditions: HaCaT, 10 ng/ml, 6 h
Experimental: FIG. 2F relates to serum-starved immortalized human keratinocytes (HaCaT cell line) that were treated for 6 h with FGF7, FGF10 (both 10 ng/ml) or vehicle (CTRL). RNA was analyzed by qRT-PCR for the expression of the indicated ISGs relative to RPLP0. Mean expression levels in CTRL cells were set to 1. Representative data from three experiments are shown. Scatter plot and mean values are shown in (A-D). Each dot represents a biological replicate.
FIGS. 3E and F pertain to confluent human primary foreskin keratinocytes and (E) or HaCaT cells (F) that were serum-starved for 24 h and treated with FGF7 (10 ng/ml) and/or IFNα (500 U/ml) for 16 h. Cells were analyzed for ISG mRNA levels by qRT-PCR relative to RPLP0. Mean expression levels in vehicle-treated (CTRL) cells were set to 1.
The human HaCaT keratinocyte cell line was cultured in DMEM (Sigma) supplemented with 10% FCS (Thermo Fisher). […]
Total RNA from isolated epidermis of mice or from total skin was purified with Trizol, followed by additional purification with the RNeasy Mini Kit, including on-column DNase treatment (Qiagen, Hilden, Germany). […] Relative gene expression was determined using the Roche LightCycler 480 SYBR Green system (Roche, Rotkreuz, Switzerland).

## CCN(CC)CCCC(C)Nc1nc(C)cc(Nc2ccc3nc(C)cc(N)c3c2)n1 (racemic) [NSC23766, 6-N-[2-[5-(diethylamino)pentan-2-ylamino]-6-methylpyrimidin-4-yl]-2-methylquinoline-4,6-diamine, reference compound]
[1]
  FGF7-mediated ISG downregulation (ISG mRNA relative to Rps29): partially or even completely rescued the FGF7-mediated ISG downregulation
HSV-1
  amount and size of Glyc-D-positive fused cells (immunofluorescence): strongly reduced the amount of Glyc-D-positive fused cells
  Glyc-B DNA levels (viral load, qPCR relative to human β-actin gene): strongly reduced

## COc1cc(CCc2cc(NC(=O)c3ccc(N4C[C@@H](C)N[C@@H](C)C4)cc3)n[nH]2)cc(OC)c1 [AZD4547, N-[5-[2-(3,5-dimethoxyphenyl)ethyl]-1H-pyrazol-3-yl]-4-[(3R,5S)-3,5-dimethylpiperazin-1-yl]benzamide, reference compound]
[1]
  FGF7-mediated ISG downregulation (ISG mRNA relative to Rps29): The same effect was observed
HSV-1
  amount and size of Glyc-D-positive fused cells (immunofluorescence): strongly reduced the amount of Glyc-D-positive fused cells
  Glyc-B DNA levels (viral load, qPCR relative to human β-actin gene): inhibited the positive effect of FGF7 on viral replication

## CCN1CCN(c2ccc(Nc3cc(N(C)C(=O)Nc4c(Cl)c(OC)cc(OC)c4Cl)ncn3)cc2)CC1 [BGJ398, 3-(2,6-dichloro-3,5-dimethoxyphenyl)-1-[6-[4-(4-ethylpiperazin-1-yl)anilino]pyrimidin-4-yl]-1-methylurea, reference compound]
HSV-1
  Glyc-B DNA levels (viral load, qPCR relative to human β-actin gene): inhibited the positive effect of FGF7 on viral replication

## FGF1: member of the FGF family that binds to all FGFRs
HCV
  HCV replication: does not enhance HCV replication

## FGF2: fibroblast growth factor-2
HCV
  HCV replication: promoted hepatitis C RNA replication and production of novel particles; also recorded: enhanced viral replication and new particle production, but not infection with the virus

## IFNα
HSV-1; 48 h after infection
  appearance of HSV-1 infected cells (transmission microscopy): almost indistinguishable from non-infected cells
HSV-1; HSV-1 MOI=0.5, FGF7 10 ng/ml or IFNα 1000 U/ml
  viral glycoprotein B (Glyc-B) DNA: had the opposite effect
[2]
  ISRE-driven luciferase activity: significant increase in luciferase activity
LCMV
  expression levels of LCMV nucleoprotein (NP) / viral replication: blocked the viral replication

B1: FGF10: recombinant human FGF10, activates FGFR2b and FGFR1b (protein, UniProt O15520 38-208, looked up)
Fibroblast growth factor 10: QALGQDMVSPEATNSSSSSFSSPSSAGRHVRSYNHLQGDVRWRKLFSFTKYFLKIEKNGKVSGTKKENCPYSILEITSVEIGVVAVKAINSNYYLAMNKKGKLYGSKEFNNDCKLKERIEENGYNTYASFNWQHNGRQMYVALNGKGAPRRGQKTRRKNTSAHFLPMVVHS
[3]
  ISG expression (qRT-PCR relative to RPLP0): suppressed ISG expression to a similar extent as FGF7
